Data from US8153593B2, “Transglutaminase inhibitors and methods of use thereof” (The Board of Trustees of the Leland Stanford Junior …, priority 2003, dated 2012).
Each block holds one molecule with its values, some of them ahead of it. *1 amine or outer side, *2 acyl side, *3 side chain or, on linkers, in order; H or OH if unused. Where a SMILES comes first, the peptide text is derived from it. [ ]: non-standard residue; d: D form. X2 = [N-]=[N+]=CC(=O)CC[C@@H](N[*:1])C(=O)[*:2]; DON = [N-]=[N+]=CC(=O)CC[C@H](N)C(=O)O

Experiments:
human TG2 [1] = target: T1, human TG2 (Homo sapiens, UniProt P21980); assay: TG2 inhibition kinetics by the method of Hausch et al.; format: biochemical; design: ki/KI: unit not given here
T1 sequence (P21980 1-687): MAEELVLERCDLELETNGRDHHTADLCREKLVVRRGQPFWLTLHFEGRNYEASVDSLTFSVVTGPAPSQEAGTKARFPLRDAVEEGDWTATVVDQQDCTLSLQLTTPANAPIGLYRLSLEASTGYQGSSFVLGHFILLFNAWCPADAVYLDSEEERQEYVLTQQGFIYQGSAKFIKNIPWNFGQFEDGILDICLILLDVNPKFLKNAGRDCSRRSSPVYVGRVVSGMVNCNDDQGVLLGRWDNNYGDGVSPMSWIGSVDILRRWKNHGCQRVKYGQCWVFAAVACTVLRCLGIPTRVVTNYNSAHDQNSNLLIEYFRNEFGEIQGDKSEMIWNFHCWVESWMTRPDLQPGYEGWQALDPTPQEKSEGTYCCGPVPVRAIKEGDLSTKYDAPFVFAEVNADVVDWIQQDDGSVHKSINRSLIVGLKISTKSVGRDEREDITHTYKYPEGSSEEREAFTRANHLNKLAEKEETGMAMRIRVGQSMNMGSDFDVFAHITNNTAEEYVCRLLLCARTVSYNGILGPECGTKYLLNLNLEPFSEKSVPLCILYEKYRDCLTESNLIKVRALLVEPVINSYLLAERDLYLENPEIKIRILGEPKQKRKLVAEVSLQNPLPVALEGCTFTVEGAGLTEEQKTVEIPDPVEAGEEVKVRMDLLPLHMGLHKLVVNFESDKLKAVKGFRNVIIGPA
Text: Earlier disclosures had reported the synthesis and evaluation of a promising peptidic inhibitor of human TG2, (SEQ ID NO:1) Ac-Pro-Gln-Pro-DON-Leu-Pro-Phe-NH2. We now disclose a truncated analog that is easier to synthesize and has greater activity.
Characterization: (SEQ ID NO:3) Ac-Pro-DON-Leu-Pro-Phe-NH2 was characterized by the method of Hausch et al. (Hausch et al., Chem. Biol. (2003) 10, 225-231).

human TG2 [2] = target: T1, human TG2; conditions: cited from earlier work
[3] = target: T2, recombinant human tissue transglutaminase (Homo sapiens, UniProt P21980); assay: tTGase inhibition assay, residual activity by glutamate dehydrogenase coupled assay; format: biochemical; conditions: dihydroisoxazoles, Table 1
T2 construct: made in house
T2 sequence (P21980 1-687): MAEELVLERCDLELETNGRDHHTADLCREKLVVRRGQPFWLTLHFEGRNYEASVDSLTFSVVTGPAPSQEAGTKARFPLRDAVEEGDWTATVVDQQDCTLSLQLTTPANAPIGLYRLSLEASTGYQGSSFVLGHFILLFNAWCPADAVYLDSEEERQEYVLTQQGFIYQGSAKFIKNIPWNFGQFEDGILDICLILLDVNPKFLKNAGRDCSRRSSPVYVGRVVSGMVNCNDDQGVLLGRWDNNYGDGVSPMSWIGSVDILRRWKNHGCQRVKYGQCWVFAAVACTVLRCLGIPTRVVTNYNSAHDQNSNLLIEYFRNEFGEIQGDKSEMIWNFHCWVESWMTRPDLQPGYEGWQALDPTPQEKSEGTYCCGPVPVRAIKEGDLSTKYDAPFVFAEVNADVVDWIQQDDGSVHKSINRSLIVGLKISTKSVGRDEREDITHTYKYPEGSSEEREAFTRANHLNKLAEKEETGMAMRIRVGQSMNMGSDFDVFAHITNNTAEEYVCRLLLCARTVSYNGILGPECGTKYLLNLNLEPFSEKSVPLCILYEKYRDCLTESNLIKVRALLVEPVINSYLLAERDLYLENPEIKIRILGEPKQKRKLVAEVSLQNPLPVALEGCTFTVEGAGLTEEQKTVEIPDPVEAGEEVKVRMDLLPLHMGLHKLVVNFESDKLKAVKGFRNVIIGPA

[4] = target: T3, bovine epidermal transglutaminase (Bos taurus, UniProt A6QP57); conditions: cited from earlier work
T3 sequence (A6QP57 1-691): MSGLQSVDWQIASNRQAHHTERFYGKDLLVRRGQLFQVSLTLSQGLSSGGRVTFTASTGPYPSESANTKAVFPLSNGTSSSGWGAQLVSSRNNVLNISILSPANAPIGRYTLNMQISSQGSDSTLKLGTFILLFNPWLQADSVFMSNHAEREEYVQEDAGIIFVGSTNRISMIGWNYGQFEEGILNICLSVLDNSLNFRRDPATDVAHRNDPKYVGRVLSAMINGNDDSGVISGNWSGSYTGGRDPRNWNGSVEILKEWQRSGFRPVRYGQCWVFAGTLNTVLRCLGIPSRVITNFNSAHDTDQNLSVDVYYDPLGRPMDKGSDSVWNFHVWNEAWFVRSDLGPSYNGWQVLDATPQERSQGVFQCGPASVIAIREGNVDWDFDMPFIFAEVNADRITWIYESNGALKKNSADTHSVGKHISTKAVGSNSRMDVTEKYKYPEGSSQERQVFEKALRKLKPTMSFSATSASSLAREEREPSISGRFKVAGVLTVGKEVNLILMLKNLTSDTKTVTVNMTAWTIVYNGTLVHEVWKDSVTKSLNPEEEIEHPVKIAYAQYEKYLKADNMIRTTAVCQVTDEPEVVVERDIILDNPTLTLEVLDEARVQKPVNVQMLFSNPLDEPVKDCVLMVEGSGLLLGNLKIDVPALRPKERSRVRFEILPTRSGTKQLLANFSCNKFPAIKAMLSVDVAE

[5] = target: T4, human TG2 (tissue transglutaminase, transglutaminase 2) (human, UniProt P21980 1-687, limits assumed); assay: TG2 enzyme inactivation kinetics by the method of Hausch et al.
T4 construct: also called tTGase; tTG
T4 sequence (looked up): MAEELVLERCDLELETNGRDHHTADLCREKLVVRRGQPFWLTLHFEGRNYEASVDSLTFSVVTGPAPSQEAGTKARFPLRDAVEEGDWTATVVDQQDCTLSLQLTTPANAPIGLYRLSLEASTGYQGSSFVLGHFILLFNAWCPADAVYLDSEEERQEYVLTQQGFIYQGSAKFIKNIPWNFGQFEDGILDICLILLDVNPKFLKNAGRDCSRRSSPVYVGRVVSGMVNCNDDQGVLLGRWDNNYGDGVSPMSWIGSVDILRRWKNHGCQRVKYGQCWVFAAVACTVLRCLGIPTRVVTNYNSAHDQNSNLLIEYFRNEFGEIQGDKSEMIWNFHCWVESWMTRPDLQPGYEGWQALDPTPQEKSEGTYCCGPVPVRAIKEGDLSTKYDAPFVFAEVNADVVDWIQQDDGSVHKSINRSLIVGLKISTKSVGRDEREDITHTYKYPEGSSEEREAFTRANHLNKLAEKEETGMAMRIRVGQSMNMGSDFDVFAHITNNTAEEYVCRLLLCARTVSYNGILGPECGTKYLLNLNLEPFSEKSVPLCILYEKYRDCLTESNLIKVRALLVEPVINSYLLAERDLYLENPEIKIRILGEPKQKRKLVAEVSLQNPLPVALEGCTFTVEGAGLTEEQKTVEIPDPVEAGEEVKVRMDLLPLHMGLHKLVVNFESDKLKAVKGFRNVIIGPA

ki (human TG2 [1]): 0.5 min⁻¹
ki/KI (human TG2 [1]): 8.3
Molecule: CC(=O)N1CCC[C@H]1C(=O)N[C@H](CCC(=O)C=[N+]=[N-])C(=O)N[C@@H](CC(C)C)C(=O)N1CCC[C@H]1C(=O)N[C@@H](Cc1ccccc1)C(N)=O [Ac-Pro-DON-Leu-Pro-Phe-NH2] (Ac-P[X2]LPF-NH2)

Ki [5]: 60 nM
ki (inactivation rate constant) [5]: 0.5 min⁻¹
B1: Ac-Pro-DON-Leu-Pro-Phe-NH2 (DON=6-diazo-5-oxo-norleucine) (peptide)
peptide: Ac-P[DON]LPF-NH2
SMILES: CC(=O)N1CCC[C@H]1C(=O)N[C@@H](CCC(=O)C=[N+]=[N-])C(=O)N[C@@H](CC(C)C)C(=O)N1CCC[C@H]1C(=O)N[C@@H](Cc1ccccc1)C(N)=O
notes: Position 2 is the non-natural residue DON; also called truncated analog of Ac-Pro-Gln-Pro-DON-Leu-Pro-Phe-NH2

Continued, molecule first:

Molecule: CC(=O)CSc1n(C)c(C)c(C)[n+]1C.[Cl-] [L682777]
inhibition of human TG2 (human TG2 [2]): inhibits human TG2

Molecule: O=C(N[C@@H](Cc1ccccc1)C(=O)NCC1CC(Br)=NO1)OCc1ccccc1 (stereo partly drawn) [Compound 49, {(S)-1-[(3-Bromo-4,5-dihydro-isoxazol-5-ylmethyl)-carbamoyl]-2-phenyl-ethyl}-carbamic acid benzyl ester]
kinh [3]: 1.4 min⁻¹
inhibition of bovine epidermal transglutaminase [4]: is an inhibitor
